Species on record: Rattus norvegicus
Assay: Open TG-GATES - Regimen: Single
Type: toxicity, organism-based, Sprague-Dawley
Set-up: regimen Single, gender Male, age 6 weeks
Conditions: in vivo, po, 2000 mg/kg, route gavage, dose level High; for APTT / Bas / Eos / Fbg / Hb / Ht / Lym / MCH / MCHC / MCV / Mono / Neu / PT / Plat / RBC / Ret / WBC: tissue Blood; for KIDNEY_L / KIDNEY_R / KIDNEY_TOTAL: tissue Kidney; for LIVER: tissue Liver; for A/G / ALP / ALT / AST / BUN / CRE / Ca / Cl / DBIL / GLC / IP / K / LDH / Na / PL / RALB / TBIL / TC / TG / TP / gamma-GTP: tissue Plasma

COc1ccc(O)c(C(C)(C)C)c1.COc1ccc(O)cc1C(C)(C)C [BUTYLATED HYDROXYANISOLE]
TERMINAL_BW (3 h): 203.7 g
APTT (3 h): 15.1 s
Bas (3 h): 0.1%
Eos (3 h): 0.6%
Fbg (3 h): 266 mg/dL
Hb (3 h): 13.4 g/dL
Ht (3 h): 39%
Lym (3 h): 75.5%
MCH (3 h): 21.4 pg
MCHC (3 h): 34.3%
MCV (3 h): 62.3 fL
Mono (3 h): 1.9%
Neu (3 h): 20.8%
PT (3 h): 12.1 s
Plat (3 h): 140.3 x10_4/uL
RBC (3 h): 626.2 x10_4/ul
Ret (3 h): 8.2%
WBC (3 h): 81.2 x10_2/uL
KIDNEY_L (3 h): 0.9 g
KIDNEY_R (3 h): 0.8 g
KIDNEY_TOTAL (3 h): 1.7 g
LIVER (3 h): 7.8 g
A/G (3 h): 0.9
ALP (3 h): 1489.2 IU/L
ALT (3 h): 51.4 IU/L
AST (3 h): 79 IU/L
BUN (3 h): 9.4 mg/dL
CRE (3 h): 0.2 mg/dL
Ca (3 h): 10.9 mg/dL
Cl (3 h): 105.8 meq/L
DBIL (3 h): 0.028 mg/dL
GLC (3 h): 174.6 mg/dL
IP (3 h): 10 mg/dL
K (3 h): 3.6 meq/L
LDH (3 h): 63.6 IU/L
Na (3 h): 142 meq/L
PL (3 h): 119 mg/dL
RALB (3 h): 2.7 g/dL
TBIL (3 h): 0.096 mg/dL
TC (3 h): 70.4 mg/dL
TG (3 h): 55.4 mg/dL
TP (3 h): 5.7 g/dL
gamma-GTP (3 h): 1 IU/L
TERMINAL_BW (6 h): 202.1 g
APTT (6 h): 16.4 s
Bas (6 h): 0.2%
Eos (6 h): 0.6%
Fbg (6 h): 267.6 mg/dL
Hb (6 h): 13.5 g/dL
Ht (6 h): 39.6%
Lym (6 h): 68.4%
MCH (6 h): 20.9 pg
MCHC (6 h): 34.2%
MCV (6 h): 61.1 fL
Mono (6 h): 2.8%
Neu (6 h): 27%
PT (6 h): 12.6 s
Plat (6 h): 154.9 x10_4/uL
RBC (6 h): 646.8 x10_4/ul
Ret (6 h): 7.5%
WBC (6 h): 78.3 x10_2/uL
KIDNEY_L (6 h): 0.9 g
KIDNEY_R (6 h): 0.9 g
KIDNEY_TOTAL (6 h): 1.7 g
LIVER (6 h): 7.7 g
A/G (6 h): 0.8
ALP (6 h): 1463.6 IU/L
ALT (6 h): 49 IU/L
AST (6 h): 73.8 IU/L
BUN (6 h): 11.2 mg/dL
CRE (6 h): 0.2 mg/dL
Ca (6 h): 10.8 mg/dL
Cl (6 h): 106.8 meq/L
DBIL (6 h): 0.024 mg/dL
GLC (6 h): 172.4 mg/dL
IP (6 h): 10.4 mg/dL
K (6 h): 4 meq/L
LDH (6 h): 62.4 IU/L
Na (6 h): 141.8 meq/L
PL (6 h): 124.2 mg/dL
RALB (6 h): 2.6 g/dL
TBIL (6 h): 0.084 mg/dL
TC (6 h): 75.8 mg/dL
TG (6 h): 40.8 mg/dL
TP (6 h): 5.8 g/dL
gamma-GTP (6 h): 1.2 IU/L
TERMINAL_BW (9 h): 199.8 g
APTT (9 h): 17.5 s
Bas (9 h): 0.2%
Eos (9 h): 0.7%
Fbg (9 h): 289 mg/dL
Hb (9 h): 13.9 g/dL
Ht (9 h): 40.9%
Lym (9 h): 68.4%
MCH (9 h): 20.7 pg
MCHC (9 h): 34%
MCV (9 h): 60.9 fL
Mono (9 h): 1.6%
Neu (9 h): 28.5%
PT (9 h): 13 s
Plat (9 h): 141.5 x10_4/uL
RBC (9 h): 671.8 x10_4/ul
Ret (9 h): 7%
WBC (9 h): 76.1 x10_2/uL
KIDNEY_L (9 h): 0.9 g
KIDNEY_R (9 h): 0.9 g
KIDNEY_TOTAL (9 h): 1.8 g
LIVER (9 h): 7.2 g
A/G (9 h): 0.8
ALP (9 h): 1379.8 IU/L
ALT (9 h): 40.8 IU/L
AST (9 h): 69 IU/L
BUN (9 h): 9.2 mg/dL
CRE (9 h): 0.2 mg/dL
Ca (9 h): 10.9 mg/dL
Cl (9 h): 108.2 meq/L
DBIL (9 h): 0.03 mg/dL
GLC (9 h): 167.6 mg/dL
IP (9 h): 10.2 mg/dL
K (9 h): 4 meq/L
LDH (9 h): 58.6 IU/L
Na (9 h): 143.6 meq/L
PL (9 h): 141.4 mg/dL
RALB (9 h): 2.7 g/dL
TBIL (9 h): 0.096 mg/dL
TC (9 h): 87.6 mg/dL
TG (9 h): 42.2 mg/dL
TP (9 h): 5.9 g/dL
gamma-GTP (9 h): 1 IU/L
TERMINAL_BW (24 h): 207.8 g
APTT (24 h): 16.8 s
Bas (24 h): 0.2%
Eos (24 h): 0.8%
Fbg (24 h): 289.8 mg/dL
Hb (24 h): 13.7 g/dL
Ht (24 h): 39.6%
Lym (24 h): 78.6%
MCH (24 h): 21.2 pg
MCHC (24 h): 34.6%
MCV (24 h): 61.3 fL
Mono (24 h): 2.2%
Neu (24 h): 17.4%
PT (24 h): 12.3 s
Plat (24 h): 155.8 x10_4/uL
RBC (24 h): 646.8 x10_4/ul
Ret (24 h): 5.8%
WBC (24 h): 68 x10_2/uL
KIDNEY_L (24 h): 0.9 g
KIDNEY_R (24 h): 0.9 g
KIDNEY_TOTAL (24 h): 1.8 g
LIVER (24 h): 9.3 g
A/G (24 h): 0.8
ALP (24 h): 1603 IU/L
ALT (24 h): 53 IU/L
AST (24 h): 73.6 IU/L
BUN (24 h): 12.6 mg/dL
CRE (24 h): 0.2 mg/dL
Ca (24 h): 11.5 mg/dL
Cl (24 h): 108.6 meq/L
DBIL (24 h): 0.044 mg/dL
GLC (24 h): 155.2 mg/dL
IP (24 h): 8.5 mg/dL
K (24 h): 4.2 meq/L
LDH (24 h): 82.4 IU/L
Na (24 h): 142.8 meq/L
PL (24 h): 152.2 mg/dL
RALB (24 h): 2.7 g/dL
TBIL (24 h): 0.088 mg/dL
TC (24 h): 93.4 mg/dL
TG (24 h): 217 mg/dL
TP (24 h): 5.9 g/dL
gamma-GTP (24 h): 1 IU/L

From ChEMBL document CHEMBL3885861, “Open TG-GATES”
